Where a name gives a salt, the structure may show the parent alone. Read-outs that look alike come from different tables or passages of the source.
Key:
[1] = system: CEM cells (human T-cell lymphoma); assay: Prevention of β-D-GA-related cytotoxicity by natural nucleosides, CEM cells; format: cell-based; conditions: 50 μM natural nucleoside, 4 days, plot not shown
Procedure: (§1) The prevention of β-D-GA-related cytotoxicity in CEM cells (human T-cell lymphoma) and in the SUDHL-1 cells (human anaplastic large T-cell lymphoma cell line) was studied by adding natural nucleosides. This experiment was initiated by adding 50 μM of natural nucleosides into the media, together with increasing concentration of β-D-GA. CEM cells were seeded at 2500 cells per well and incubated for 4 days (=fast growing cell line with a doubling time of 1.3 days). SUDHL-1 cells were seeded at 10,000 cells/well, and incubated for 3 days (=slow growing cell line, doubling time 3 days). The result of this experiment is plotted in FIG. 4.

[2] = system: SUDHL-1 cells (human anaplastic large T-cell lymphoma cell line); assay: Prevention of β-D-GA-related cytotoxicity by natural nucleosides, SUDHL-1 cells; format: cell-based; conditions: 50 μM natural nucleoside; SUDHL-1 cells, 3 days; FIG. 4
Procedure: as §1

[3] = system: Parainfluenza Type 3 Virus; assay: organism not typed; format: cell-based; conditions: Initial Test, Neutral Red
Influenza B [4] = format: cell-based, Influenza B virus B/Beijing/184/93
Influenza A (H1N1) [5] = format: cell-based, Influenza A virus A/Beijing/262/95
[6] = system: Respiratory Syncytial Virus A; assay: microbe, parasite or virus in culture; format: cell-based; conditions: Initial Test, Neutral Red
rDNA (host DNA) = assay: rDNA ΔCt in Huh7 replicon cells (effect on cellular DNA polymerases); conditions: Table 25, average of N
How it was run: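 Host rDNA (or beta-actin DNA) quantified in treated Huh7 replicon cells and compared with no-drug control as ΔCt, a relative measure of cellular DNA polymerase inhibition. A specificity parameter is obtained by subtracting the rDNA ΔCt from the HCV ΔCt.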

[7] = system: rRNA (host RNA polymerase I product); assay: rRNA ΔCt in Huh7 replicon cells (effect on host RNA polymerases); conditions: Table 24, average of n
How it was run: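 Host RNA polymerase I activity estimated by quantifying rRNA in replicon cells relative to no-drug control, expressed as ΔCt. A specificity parameter is obtained by subtracting the HCV ΔCt and rRNA ΔCt values from each other.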

Influenza B [8] = assay: microbe, parasite or virus in culture; format: cell-based; conditions: Initial Test, Neutral Red
Influenza A (H1N1) [9] = assay: microbe, parasite or virus in culture; format: cell-based; conditions: Initial Test, Neutral Red
[10] = system: Parainfluenza Type 3 Virus; assay: organism not typed; format: cell-based, Parainfluenza type 3 virus strain 14702; conditions: for EC50: Initial Test, CPE Inhibition (Visual), read-out: EC50, Parainfluenza Type 3 Virus
Influenza A (H3N2) [11] = assay: microbe, parasite or virus in culture; format: cell-based; conditions: Initial Test, Neutral Red
[12] = system: Respiratory Syncytial Virus A; assay: microbe, parasite or virus in culture; format: cell-based, Respiratory Syncytial Virus strain A2; conditions: for EC50: Initial Test, CPE Inhibition (Visual), read-out: EC50, RSV
Influenza A (H3N2) [13] = assay: microbe, parasite or virus in culture; format: cell-based
Influenza A (H1N1) [14] = assay: microbe, parasite or virus in culture; format: cell-based
HCV replicon = HCV replicon system in Huh7 cells, replicon RNA by Q-RT-PCR (HCV ΔCt, ΔΔCt); format: cell-based, hepatitis C virus; conditions: for Ave. ΔΔCt: HCV RNA ΔCt minus rRNA ΔCt; for Ave. HCV RNA ΔCt: HCV replicon in Huh7 cells; for average ΔΔCt: HCV RNA ΔCt minus rDNA ΔCt
Influenza B [15] = assay: microbe, parasite or virus in culture; format: cell-based
Influenza A (H3N2) [16] = format: cell-based, Influenza A virus A/Sydney/05/97
[17] = Confirmatory Test, Visual (EC50)
[18] = Initial Test, CPE Inhibition (Visual)

Structure (SMILES)	melting point	prevention of β-D-GA toxicity, in words [1]	prevention of β-D-GA toxicity, in words [2]	EC50 [3]	EC50 [6]	Ave. rDNA ΔCt (rDNA (host DNA))	Ave. rRNA ΔCt [7]	EC50 (Influenza B [8])	EC50 (Influenza A (H1N1) [9])	EC50 [10]	EC50 (Influenza A (H3N2) [11])	EC50 [12]	EC50 (Influenza A (H3N2) [13]; [18])	EC50 (Influenza A (H1N1) [14]; [18])	Ave. ΔΔCt (HCV replicon; Table 24)	Ave. HCV RNA ΔCt (HCV replicon; Table 24, average of n)	average ΔΔCt (HCV replicon; Table 25)	Ave. HCV RNA ΔCt (HCV replicon; Table 25, average of N)	EC50 (Influenza B [15]; [18])	also measured
Nc1ccn([C@@H]2O[C@H](CO)C[C@H]2O)c(=O)n1 (as salt: hemisulfate)	202 to 203 °C (dec.)	–	–	–	–	–	–	–	–	–	–	–	–	–	–	–	–	–	–	–
O=c1[nH]c(=O)n([C@@H]2O[C@H](CO)[C@@H](O)[C@H]2O)c2nn[nH]c12 (hydrate or solvate)	164 to 166 °C (dec.)	–	–	–	–	–	–	–	–	–	–	–	–	–	–	–	–	–	–	–
Nc1ccn([C@@H]2O[C@H](CO)[C@@H](O)[C@H]2O)c(=O)n1 [cytidine]	–	markedly prevent β-D-GA toxicity	markedly prevent β-D-GA toxicity	–	–	–	–	–	–	–	–	–	–	–	–	–	–	–	–	–
O=c1ccn([C@@H]2O[C@H](CO)[C@@H](O)[C@H]2O)c(=O)[nH]1 [uridine]	–	markedly prevent β-D-GA toxicity	markedly prevent β-D-GA toxicity	–	–	–	–	–	–	–	–	–	–	–	–	–	–	–	–	–
O=c1nc(NO)ccn1[C@@H]1O[C@H](CO)[C@@H](O)[C@H]1O [β-D-BS]	–	–	–	40000 nM	< 500 nM	0.38	1.05	1200 nM	1200 nM	> 500000 nM	4000 nM	500 nM	1500 nM	1500 nM	3.83	4.89	4.45	4.81	500 nM	EC90 (μM), virus yield reduction (Influenza B [4]): 0.6 µM; EC90 (virus yield reduction) (Influenza A (H1N1) [5]): 400 nM; antiviral activity against Parainfluenza type 3 virus, in words ([10]; summary of Table 23): no activity against Parainfluenza type 3 virus; antiviral activity against RSV, in words ([12]; summary of Table 23): some activities against RSV; EC50 (Influenza A (H3N2) [13]; [17]): 500 nM; EC50 (Influenza A (H1N1) [14]; [17]): 1300 nM; antiviral activity against influenza A and B, in words (Influenza A (H1N1) [14]; summary of Table 23, influenza A and B): potent in vitro antiviral capacities against influenza A and B; EC50 (Influenza B [15]; [17]): 600 nM; EC90 (virus yield reduction) (Influenza A (H3N2) [16]): 320 nM
OC[C@H]1O[C@@H](n2cnc3c(Cl)ncnc32)[C@H](O)[C@@H]1O [β-D-DJ]	–	–	–	500000 nM	> 500000 nM	2.70	3.62	110000 nM	> 500000 nM	> 500000 nM	> 500000 nM	500000 nM	> 500000 nM	> 500000 nM	−0.11	3.51	2.14	4.84	50000 nM	–

— US10100076B2, “Modified nucleosides for the treatment of viral infections and abnormal cellular proliferation” (priority 2000, dated 2018)
